Laboratory results reported in patent publication US20240368096A1 (Enanta Pharmaceuticals, Inc., priority 2022, published 2024).

These molecules were tested on HBV (assay: HBV infection in HepG2-NTCP cells (HBeAg AlphaLISA in supernatants)). Details: Hepatitis B virus, 192 h; HBV infection of HepG2-NTCP cells; HBeAg in supernatants at day 8 post infection; read-out: Cellular EC50.
Assay type: cell-based
Method in brief: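 Readout was day-8 supernatant HBeAg by AlphaLISA, with EC50 set against DMSO controls and binned A<0.1 μM, B 0.1-1 μM, C>1 μM. Compounds were added 2 h before HBV (2000 GE/cell, 4% PEG, 0.5% DMSO) to HepG2-NTCP A3 cells; from day 1 medium held 2.5% DMSO.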

EC50 [nM] | Compound
< 100 | CN1[C@H](C2CCCCC2)CN(c2ccccc2)c2cc(Cl)c(-c3ccc([N+](=O)[O-])c(C(=O)O)c3)cc2S1(=O)=O [Example 189, (R)-5-(7-chloro-3-cyclohexyl-2-methyl-1,1-dioxido-5-phenyl-2,3,4,5-tetrahydrobenzo[f][1,2,5]thiadiazepin-8-yl)-2-nitrobenzoic acid]
100 to 1000 | CN1[C@H](C2CCCCC2)CN(c2ccccc2)c2cc(Cl)c(-c3cnc(O)c(C(=O)O)c3)cc2S1(=O)=O [Example 193]
100 to 1000 | CN1[C@H](C2CCCCC2)CN(c2ccccc2)c2cc(Cl)c(-c3cc(C(=O)O)c4ccccc4c3)cc2S1(=O)=O [Example 196]
> 1000 | CN1[C@H](C2CCCCC2)CN(c2ccccc2)c2cc(Cl)c(-c3ccc4c(c3)C(=O)NC4=O)cc2S1(=O)=O [Example 197]
100 to 1000 | CN1[C@H](C2CCCCC2)CN(c2ccccc2)c2cc(Cl)c(-c3ccc4c(c3)S(=O)(=O)NC4=O)cc2S1(=O)=O [Example 198]
100 to 1000 | CN1[C@H](C2CCCCC2)CN(c2ccccc2)c2cc(Cl)c(-c3ccc(F)c(S(N)(=O)=O)c3)cc2S1(=O)=O [Example 199]
100 to 1000 | CN1[C@H](C2CCCCC2)CN(c2ccccc2)c2cc(Cl)c(-c3ccc(Cl)c(S(N)(=O)=O)c3)cc2S1(=O)=O [Example 200]
100 to 1000 | CN1[C@H](C2CCCCC2)CN(c2ccccc2)c2cc(Cl)c(-c3ccc4oncc4c3)cc2S1(=O)=O [Example 202]
< 100 | CN1[C@H](C2CCC2)CN(c2ccccc2)c2cc(Cl)c(-c3cccc(C(=O)C(=O)O)c3)cc2S1(=O)=O [Example 206]
< 100 | CN1[C@H](C2CCCCC2)CN(c2ccccc2)c2cc(Cl)c(-c3cccc(C(=O)C(=O)O)c3)cc2S1(=O)=O [Example 207]
100 to 1000 | CN1[C@H](C2CCCCC2)CN(c2ccccc2)c2cc(Cl)c(-c3cc(C(=O)O)c4cc[nH]c4c3)cc2S1(=O)=O [Example 209]
100 to 1000 | CN1[C@H](C2CCCCC2)CN(c2ccccc2)c2cc(Cl)c(-c3cc(C(=O)O)c4ncccc4c3)cc2S1(=O)=O [Example 210]
100 to 1000 | CN1[C@H](C2CCCCC2)CN(c2ccccc2)c2cc(Cl)c(-c3ccc(C(=O)O)c(C(=O)O)c3)cc2S1(=O)=O [Example 213, (R)-4-(7-chloro-3-cyclohexyl-2-methyl-1,1-dioxido-5-phenyl-2,3,4,5-tetrahydrobenzo[f][1,2,5]thiadiazepin-8-yl)phthalic acid]
100 to 1000 | CC(=O)NS(=O)(=O)c1cccc(-c2cc3c(cc2Cl)N(c2ccccc2)C[C@@H](C2CCCCC2)N(C)S3(=O)=O)c1 [Example 222]
< 100 | CC(=O)NS(=O)(=O)c1cc(-c2cc3c(cc2Cl)N(c2ccccc2)C[C@@H](C2CCCCC2)N(C)S3(=O)=O)ccc1F [Example 223]
< 100 | CC(=O)Nc1ccc(-c2cc3c(cc2Cl)N(c2ccccc2)C[C@@H](C2CCCCC2)N(C)S3(=O)=O)cc1C(=O)O [Example 229]
100 to 1000 | CN1[C@H](C2CCCCC2)CN(c2ccccc2)c2cc(Cl)c(-c3cccc(P(=O)(O)O)c3)cc2S1(=O)=O [Example 232, (R)-(3-(7-chloro-3-cyclohexyl-2-methyl-1,1-dioxido-5-phenyl-2,3,4,5-tetrahydrobenzo[f][1,2,5]thiadiazepin-8-yl)phenyl)phosphonic acid]
100 to 1000 | CN1[C@H](C2CCC2)CN(c2ccccc2)c2cc(Cl)c(-c3cccc(P(=O)(O)O)c3)cc2S1(=O)=O [Example 234]

More lines, now with the values behind:

Compound | EC50 [nM]
CN1[C@H](C2CCCCC2)CN(c2ccccc2)c2cc(Cl)c(-c3cc(F)c(N)c(C(=O)O)c3)cc2S1(=O)=O [Example 190] | 100 to 1000
COc1cc(-c2cc3c(cc2Cl)N(c2ccccc2)C[C@@H](C2CCCCC2)N(C)S3(=O)=O)cc(C(=O)O)c1N [Example 191] | < 100
CN1[C@H](C2CCC2)CN(c2ccccc2)c2cc(Cl)c(-c3ccc([N+](=O)[O-])c(C(=O)O)c3)cc2S1(=O)=O [Example 203] | < 100
CN1[C@H](C2CCC2)CN(c2ccccc2)c2cc(Cl)c(-c3ccc(C(F)(F)F)c(C(=O)O)c3)cc2S1(=O)=O [Example 204] | < 100
CC(C)C[C@@H]1CN(c2ccccc2)c2cc(Cl)c(-c3cccc(C(=O)C(=O)O)c3)cc2S(=O)(=O)N1C [Example 205, (R)-2-(3-(7-chloro-3-isobutyl-2-methyl-1,1-dioxido-5-phenyl-2,3,4,5-tetrahydrobenzo[f][1,2,5]thiadiazepin-8-yl)phenyl)-2-oxoacetic acid] | < 100
CN1[C@H](C2CCCCC2)CN(c2ccccc2)c2cc(Cl)c(-c3cc(C(=O)O)c4cn[nH]c4c3)cc2S1(=O)=O [Example 208, (R)-6-(7-chloro-3-cyclohexyl-2-methyl-1,1-dioxido-5-phenyl-2,3,4,5-tetrahydrobenzo[f][1,2,5]thiadiazepin-8-yl)-1H-indazole-4-carboxylic acid] | > 1000
CN1[C@H](C2CCCCC2)CN(c2ccccc2)c2cc(Cl)c(-c3cc(C(=O)O)c4nccn4c3)cc2S1(=O)=O [Example 211] | 100 to 1000
CC(C)C[C@@H]1CN(c2ccccc2)c2cc(Cl)c(-c3ccc4[nH]cc(C(=O)O)c4c3)cc2S(=O)(=O)N1C [Example 212] | > 1000
CC(C)C[C@@H]1CN(c2ccccc2)c2cc(Cl)c(-c3ccc(OCC(F)(F)F)c(C(=O)O)c3)cc2S(=O)(=O)N1C [Example 214, (R)-5-(7-chloro-3-isobutyl-2-methyl-1,1-dioxido-5-phenyl-2,3,4,5-tetrahydrobenzo[f] [1,2,5]thiadiazepin-8-yl)-2-(2,2,2-trifluoroethoxy)benzoic acid] | 100 to 1000
CC(C)C[C@@H]1CN(c2ccccc2)c2cc(Cl)c(-c3ccc(-c4ccccc4)c(C(=O)O)c3)cc2S(=O)(=O)N1C [Example 215, (R)-4-(7-chloro-3-isobutyl-2-methyl-1,1-dioxido-5-phenyl-2,3,4,5-tetrahydrobenzo[f][1,2,5]thiadiazepin-8-yl)-[1,1′-biphenyl]-2-carboxylic acid] | 100 to 1000
CC(C)C[C@@H]1CN(c2ccccc2)c2cc(Cl)c(-c3ccc(-c4ccoc4)c(C(=O)O)c3)cc2S(=O)(=O)N1C [Example 216] | 100 to 1000
CC(C)C[C@@H]1CN(c2ccccc2)c2cc(Cl)c(-c3ccc(C4=CCC(C)(C)CC4)c(C(=O)O)c3)cc2S(=O)(=O)N1C [Example 217] | > 1000
CC(C)C[C@@H]1CN(c2ccccc2)c2cc(C3=CCC(C)(C)CC3)c(-c3ccc(C4=CCC(C)(C)CC4)c(C(=O)O)c3)cc2S(=O)(=O)N1C [Example 218] | 100 to 1000
CC(C)C[C@@H]1CN(c2ccccc2)c2cc(Cl)c(-c3ccc(N4CCCCC4)c(C(=O)O)c3)cc2S(=O)(=O)N1C [Example 219, (R)-5-(7-chloro-3-isobutyl-2-methyl-1,1-dioxido-5-phenyl-2,3,4,5-tetrahydrobenzo[f][1,2,5]thiadiazepin-8-yl)-2-(piperidin-1-yl)benzoic acid] | > 1000
CC(=O)NS(=O)(=O)c1cccc(-c2cc3c(cc2Cl)N(c2ccccc2)C[C@@H](CC(C)C)N(C)S3(=O)=O)c1 [Example 220, (R)—N-((3-(7-chloro-3-isobutyl-2-methyl-1,1-dioxido-5-phenyl-2,3,4,5-tetrahydrobenzo[f][1,2,5]thiadiazepin-8-yl)phenyl)sulfonyl)acetamide] | 100 to 1000
CC(C)C[C@@H]1CN(c2ccccc2)c2cc(Cl)c(-c3cccc(S(=O)(=O)NC(=O)c4ccccc4)c3)cc2S(=O)(=O)N1C [Example 221] | 100 to 1000
CC(=O)NS(=O)(=O)c1cc(-c2cc3c(cc2Cl)N(c2ccccc2)C[C@@H](C2CCCCC2)N(C)S3(=O)=O)ccc1Cl [Example 224] | < 100
CC(=O)NS(=O)(=O)c1cccc(-c2cc3c(cc2Cl)N(c2ccccc2)C[C@@H](C2CCC2)N(C)S3(=O)=O)c1 [Example 228] | 100 to 1000
CC(C)C[C@@H]1CN(c2ccccc2)c2cc(Cl)c(-c3cccc(S(=O)(=O)O)c3)cc2S(=O)(=O)N1C [Example 230] | 100 to 1000
CC(C)C[C@@H]1CN(c2ccccc2)c2cc(Cl)c(-c3cccc(P(=O)(O)O)c3)cc2S(=O)(=O)N1C [Example 233] | 100 to 1000
CN1[C@H](C2CCCCC2)CN(c2ccccc2)c2cc(Cl)c(-c3ccc(NC(=O)OCc4ccccc4)c(C(=O)O)c3)cc2S1(=O)=O [Example 236] | < 100
CN1[C@H](C2CCCCC2)CN(c2ccccc2)c2cc(Cl)c(-c3ccc(NC(=O)Nc4ccccc4)c(C(=O)O)c3)cc2S1(=O)=O [Example 237, (R)-5-(7-chloro-3-cyclohexyl-2-methyl-1,1-dioxido-5-phenyl-2,3,4,5-tetrahydrobenzo[f][1,2,5]thiadiazepin-8-yl)-2-(3-phenylureido)benzoic acid] | < 100
CN1[C@H](C2CCCCC2)CN(c2ccccc2)c2cc(Cl)c(-c3cc(NC(=O)OC(C)(C)C)c(C(=O)O)s3)cc2S1(=O)=O [Example 238, (R)-3-((tert-butoxycarbonyl)amino)-5-(7-chloro-3-cyclohexyl-2-methyl-1,1-dioxido-5-phenyl-2,3,4,5-tetrahydrobenzo[f][1,2,5]thiadiazepin-8-yl)thiophene-2-carboxylic acid] | 100 to 1000
CCCOC(=O)Nc1cc(-c2cc3c(cc2Cl)N(c2ccccc2)C[C@@H](C2CCCCC2)N(C)S3(=O)=O)sc1C(=O)O [Example 243] | < 100
CN1[C@H](C2CCCCC2)CN(c2ccccc2)c2cc(Cl)c(-c3cc(NC(=O)OCC(C)(F)F)c(C(=O)O)s3)cc2S1(=O)=O [Example 244] | < 100
CN1[C@H](C2CCCCC2)CN(c2ccccc2)c2cc(Cl)c(-c3cc(NC(=O)OCCC(F)(F)F)c(C(=O)O)s3)cc2S1(=O)=O [Example 245] | 100 to 1000
CCCCCOC(=O)Nc1cc(-c2cc3c(cc2Cl)N(c2ccccc2)C[C@@H](C2CCCCC2)N(C)S3(=O)=O)sc1C(=O)O [Example 247] | < 100
CC(C)OC(=O)Nc1cc(-c2cc3c(cc2Cl)N(c2ccccc2)C[C@@H](C2CCCCC2)N(C)S3(=O)=O)sc1C(=O)O [Example 248] | < 100
